Patent US8258081B2, “Use of C3 to C14 aliphatic aldehydes, ketones and primary and secondary C3 to C7 aliphatic alcohols to inhibit sprouting of potato tubers” (Washington State University Research Foundation, priority 2007, dated 2012)

How the values were obtained:
[1] = tested on: potato tubers; assay: Sprout inhibition by 3N2, 2-nonanone and 2-nonanol, sprout fresh weight 21 days after treatment at 18° C.; format: in vivo; details: for % Inhibition of sprouting: 24 h treatment; for inhibition of sprout growth relative to non-treated controls: 0.5 and 0.75 mmol/kg
Method: (§1) The objective of this study was to determine the metabolites of 3-nonen-2-one (3N2) and trans-2-nonenal (T2N), which are two examples of α,β-unsaturated aldehydes and ketones that inhibit sprouting in potatoes as described in U.S. Pat. No. 6,855,669. Potato tubers were treated with 3N2 or T2N (0.75 mmol/kg tuber) for 24 h in a closed chamber. The chemicals were volatilized from filter paper inside the chamber. The tubers were removed from the treatment chamber and placed at 9° C. for up to 28 days.
Tubers were treated separately as described in Example 1 with 0, 0.25, 0.5, and 0.75 mmol/kg of 3N2,2-nonanone, and 2-nonanol. The treated tubers were placed at 18° C. and sprout fresh weights were measured 21 days after treatment.

[2] = tested on: Russet Burbank tubers; assay: Sprout inhibition by mixtures of 3N2 and 2-nonanone, sprout fresh weight 21 days after treatment at 22° C.; format: in vivo, potato
Method: FIG. 3. Effects of 3-nonen-2-one (3N2) in various combinations with 2-nonanone on sprouting of Russet Burbank tubers. The compounds were applied as described in Example 1. Tubers were treated for 24 h, removed from treatment chambers, and placed at 22° C. to sprout for 3 weeks. Sprout fresh weight is expressed as a percentage of control (non-treated), which were 100% sprouted.
as §1
The objective of this study was to determine the efficacy of mixtures of 3N2 and its metabolite, 2-nonanone, on sprout inhibition. Tubers were treated as described in Example 1 with 0 to 0.75 mmol/kg of 3N2 combined factorially with 0 to 0.75 mmol/kg of 2-nonanone. The treated tubers were placed at 22° C. and sprout fresh weights were measured 21 days after treatment. […]

[3] = tested on: Premier Russet tubers; assay: Long term sprout inhibition during storage at 9° C.; format: in vivo, potato; details: 0.75 mmol/kg; for duration of sprout suppression: re-applied between second and third month
Method: FIG. 4. Effect of trans-2-hexen-1-ol, 2-heptanol, decanal and 3-decanone on sprouting in Premier Russet tubers during long term storage at 9° C.
The objective of this study was to determine the extent to which trans-2-hexen-1-ol, 2-heptanol, decanal, and 3-decanone inhibit sprouting during extended storage under typical commercial storage conditions. Premier Russet tubers were treated separately with 0.75 mmol/kg of each compound in 190 L plastic barrels at room temperature. Chemicals were volatilized from filter paper within the barrels which were sealed for 24 hours during application. Tubers were then stored at 9° C. and sampled monthly to determine the amount of sprouting on a per tuber basis. All treatments were re-applied between the second and third month of storage. […] 2-heptanol and decanal suppressed sprouting for 114 days (about 4 months of control). 3-decanone suppressed sprouting for 83 days.

[4] = tested on: potato tubers; assay: Sprout inhibition by C5 to C7 alcohols, sprout fresh weight 21 days after treatment at 18° C.; format: in vivo; details: 24 h treatment
Method: as §1
The objective of this study was to determine the extent to which 1-heptanol, 1-hexanol, 2-heptanol, trans-2-hepten-1-ol, trans-2-hexen-1-ol and 1-pentanol (C5 to C7 alcohols) inhibit sprouting of potato tubers. Tubers were treated separately with 0.25, 0.5, 0.75 or 1 mmol/kg of each alcohol for 24 h as described in Example 1. The treated tubers were placed at 18° C. and sprout fresh weights were measured 21 days after treatment. […] C7 alcohols inhibited sprouting by about 50 to about 100%, depending on the precise treatment.

[5] = tested on: potato tubers; assay: Residues and metabolites of 3N2 and T2N in treated potato tubers; details: for persistence of metabolite residue: tubers treated with 0.75 mmol/kg parent compound, 9° C., 28 days; for metabolites formed in tubers: tubers treated with 0.75 mmol/kg for 24 h, stored at 9° C. up to 28 days
Method: FIG. 1. Levels of 3-nonen-2-one, 2-nonanone, and 2-nonanol in tubers initially treated with 0.75 mmol/kg 3-nonen-2-one and stored at 9° C. Content of residues in the outer 20 mm of tuber.
FIG. 2. Levels of trans-2-nonenal, nonanal, trans-2-nonen-1-ol and 1-nonanol in tubers initially treated with 0.75 mmol/kg trans-2-nonenal and stored at 9° C. Content of residues in the outer 20 mm of tuber.
as §1
Samples were taken for analysis of residues and metabolite identification over the 28-day storage period.

[6] = tested on: potatoes; details: with two applications, table-stock and processing potatoes; cited from earlier work
[7] = tested on: potato tubers; assay: Sprout inhibition by T2N and its metabolites, sprout fresh weight 21 days after treatment at 19° C.; format: in vivo; details: for % Inhibition of sprouting: 24 h treatment
Method: as §1
The objective of this study was to determine the extent to which nonanal, 1-nonanol, and trans-2-nonene-1-ol (metabolites of T2N) inhibit sprouting of potato tubers relative to T2N. Tubers were treated separately with 0.25, 0.5 and 0.75 mmol/kg of T2N, nonanal, 1-nonanol, and trans-2-nonene-1-ol for 24 h as described in Example 1. The treated tubers were placed at 19° C. and sprout fresh weights were measured 21 days after treatment. T2N inhibited sprouting (100%) at all concentrations. Nonanal and 1-nonanol inhibited sprouting by 13 to 51%, depending on the compound and the concentration that was used.

## CCCCCCCC(C)=O [2-nonanone]
[1]; 0.25 mmol/kg tubers
  % Inhibition of sprouting: 77.22%
[1]; 0.5 mmol/kg tubers
  % Inhibition of sprouting: 97.9%
[1]; 0.75 mmol/kg tubers
  % Inhibition of sprouting: 98.8%
[1]
  inhibition of sprout growth relative to non-treated controls: substantially inhibited sprout growth
[2]; average of 0.5 and 0.75 mmol/kg 2-nonanone
  Sprout growth (fresh weight) as % of non-treated tubers: 58%

## CCCCCCCCCC=O [decanal]
[3]
  duration of sprout suppression: 114 days

## CCCCCCCO [1-heptanol]
[4]; 0.25 mmol/kg tubers
  % Inhibition of sprouting: 51.8%
[4]; 0.50 mmol/kg tubers
  % Inhibition of sprouting: 94.0%
[4]; 0.75 mmol/kg tubers
  % Inhibition of sprouting: 95.7%

## CCCCCCCC(C)O (stereo not drawn) [2-nonanol]
[5]
  persistence of metabolite residue: most persistent
[1]; 0.25 mmol/kg tubers
  % Inhibition of sprouting: 65.1%
[1]; 0.5 mmol/kg tubers
  % Inhibition of sprouting: 79.8%
[1]; 0.75 mmol/kg tubers
  % Inhibition of sprouting: 72.9%

## CC(C)OC(=O)Nc1cccc(Cl)c1 [CIPC, chlorpropham]
[6]
  duration of sprout inhibition / extended storage life: up to 1 year

## CCCCCC/C=C/C=O [trans-2-nonenal, reference compound]
[5]
  metabolites formed in tubers: trans-2-nonen-1-ol, nonanal and 1-nonanol
[7]; 0.25 mmol/kg tubers
  % Inhibition of sprouting: 100%
[7]; 0.5 mmol/kg tubers
  % Inhibition of sprouting: 100%
[7]; 0.75 mmol/kg tubers
  % Inhibition of sprouting: 100%
[7]; over all concentrations (0.25, 0.5 and 0.75 mmol/kg)
  inhibition of sprouting relative to untreated control: 100%

## CCCCCCCCCO [1-nonanol]
[7]; 0.25 mmol/kg tubers
  % Inhibition of sprouting: 28.3%
[7]; 0.5 mmol/kg tubers
  % Inhibition of sprouting: 24.5%
[7]; 0.75 mmol/kg tubers
  % Inhibition of sprouting: 50.9%

## CCCCCC=CC(C)=O [3-nonen-2-one, reference compound]
[5]
  metabolites formed in tubers: 2-nonanone and 2-nonanol
[1]; 0.25 mmol/kg tubers
  % Inhibition of sprouting: 99.6%
[1]; 0.5 mmol/kg tubers
  % Inhibition of sprouting: 99.9%
[1]; 0.75 mmol/kg tubers
  % Inhibition of sprouting: 99.9%
[1]
  inhibition of sprout growth relative to non-treated controls: substantially inhibited sprout growth
[2]; 0.75 mmol/kg 3N2 applied alone
  Sprout growth (fresh weight) as % of non-treated tubers: 9%

## CCCCCC(C)O (stereo not drawn) [2-heptanol]
[4]; 0.25 mmol/kg tubers
  % Inhibition of sprouting: 49.4%
[4]; 0.50 mmol/kg tubers
  % Inhibition of sprouting: 89.0%
[4]; 0.75 mmol/kg tubers
  % Inhibition of sprouting: 97.7%
[3]
  duration of sprout suppression: 114 days

## CCCC/C=C/CO [trans-2-hepten-1-ol]
[4]; 0.25 mmol/kg tubers
  % Inhibition of sprouting: 91.7%
[4]; 0.50 mmol/kg tubers
  % Inhibition of sprouting: 98.7%
[4]; 0.75 mmol/kg tubers
  % Inhibition of sprouting: 99.4%

## CCCCCCCC(=O)CC [3-decanone]
[3]
  duration of sprout suppression: 83 days

## CCCCCCO [1-hexanol]
[4]; 0.25 mmol/kg tubers
  % Inhibition of sprouting: 36.6%
[4]; 0.50 mmol/kg tubers
  % Inhibition of sprouting: 61.3%
[4]; 0.75 mmol/kg tubers
  % Inhibition of sprouting: 71.9%

## CCCCCO [1-pentanol]
[4]; 0.25 mmol/kg tubers
  % Inhibition of sprouting: 7.5%
[4]; 0.50 mmol/kg tubers
  % Inhibition of sprouting: 32.5%
[4]; 0.75 mmol/kg tubers
  % Inhibition of sprouting: 45.8%

## CCCCCCCCC=O [nonanal]
[7]; 0.25 mmol/kg tubers
  % Inhibition of sprouting: 13.2%
[7]; 0.5 mmol/kg tubers
  % Inhibition of sprouting: 32.1%
[7]; 0.75 mmol/kg tubers
  % Inhibition of sprouting: 17.0%

## CCCCCC/C=C/CO [trans-2-nonen-1-ol]
[5]
  persistence of metabolite residue: most persistent metabolite
[7]; 0.25 mmol/kg tubers
  % Inhibition of sprouting: 8.9%
[7]; 0.5 mmol/kg tubers
  % Inhibition of sprouting: 62.8%
[7]; 0.75 mmol/kg tubers
  % Inhibition of sprouting: 31.6%

## CCC/C=C/CO [trans-2-hexen-1-ol]
[4]; 0.25 mmol/kg tubers
  % Inhibition of sprouting: 96%
[4]; 0.50 mmol/kg tubers
  % Inhibition of sprouting: 100.0%
[4]; 0.75 mmol/kg tubers
  % Inhibition of sprouting: 100.0%
[3]; after 83 days
  damage to the tuber periderm: excessive damage to the periderm
[3]; up to 83 days
  sprout control: sprouts were effectively controlled up to this point
